Assay: In vitro permeation of Acyclovir through epidermal membrane in Franz type diffusion cells after amino acid pre-treatment
Format: in vitro ADME, Human
Conditions: maximal enhancement of the drug's permeation by amino acid pre-treatment
Description: Acyclovir (ACV), metronidazole and diclofenac diethylamine (DDEA) were analysed using HPLC, using of a Waters Alliance Separations Module and Waters detector. The temperature of the column and samples were maintained at 45±2° C. and 5.0±2° C., respectively. A Kinetix™ C-18 (Phenomenex, USA) column (150 mm×4.6 mm 5 μm particle size) with a guard column (Phenomenex USA, C-18 4.0×3.0 mm) was employed as the stationary phase. The mobile phase was three part; mobile phase A, water; mobile phase B, methanol; and mobile phase C, 10 mM ammonium phosphate buffer pH 2.5. The mobile phase was run using a gradient flow (Table 2) with a flow rate of 0.8 mL/min. Samples were run for 12 minutes with an injection volume of 10 μL. Acyclovir, metronidazole and DDEA were processed at a wavelength of 276 nm, with approximate retention times of 4.7, 6.5, and 8.7 min, respectively. Calibration curves were constructed from a series of standards prepared by serial dilution in conjunction with separately prepared quality controls. […] Data were recorded and analysed using Empower Pro^3 Software. […]
Three experiments were performed, one for each API (Acyclovir, metronidazole and DDEA). […] The integrity of the epidermal membrane was assessed using electrical resistance to ensure the epidermal membrane was intact. […] Samples were analysed using HPLC and the level of each API that had permeated was quantified.

- ER (drug absorption enhancement factor): 12
SMILES: Nc1nc2c(ncn2COCCO)c(=O)[nH]1 [ACV, Acyclovir]

Reference: patent US20150328109A1, “DERMAL COMPOSITIONS CONTAINING UNNATURAL HYGROSCOPIC AMINO ACIDS” (MEDPHARM LIMITED, priority 2012, published 2015)
